Experimental data as given in patent publication EP1914304A1 (priority 1998, dated 1999).

Assays:
[1] = system: E. coli KY895 harboring HSV-1 TK mutant TKI 208 (Leu-170 to Val); assay: Negative selection on AZT-selection medium; type: cell-based; conditions: 0.05 µg/mL of AZT, 1.0 µg/mL of dT
Source text: (§1) This screen is based upon the premise that mutants with increased ability to phosphorylate AZT relative to dT would be unable to form colonies on the AZT-selection medium. In particular, the product, AZT monophosphate would be further phosphorylated by the host cell's nonspecific nucleotide kinases, or possibly by the mutant TK, incorporated into bacterial DNA by host DNA polymerases, terminate DNA synthesis, and thus prevent replication of the host chromosome.
(§2) Briefly, the TK mutants were first grown as individual colonies on TK-selection medium (1.0 µg/mL of dT), and then replica plated onto AZT-selection medium (0.05 µg/mL of AZT, 1.0 µg/mL of dT). All other components in the AZT-selection medium were the same as the TK-selection medium.

[2] = system: E. coli KY895 harboring HSV-1 TK mutant TKF 105 (Leu-170 to Ile); assay: Negative selection on AZT-selection medium; type: cell-based; conditions: 0.05 µg/mL of AZT, 1.0 µg/mL of dT
Source text: as §1, §2

[3] = system: ts13 BHK tk- cells transfected with pCMV:HSVTK (wild-type HSV-1 TK); assay: Cell killing by GCV and ACV, Alamar Blue viability (ED50); type: cell-based, baby hamster; conditions: Mesocricetus auratus, 96 h; effective dose for 50% cell killing, after 4 days on nucleoside analog, pooled G418 resistant clones
Protocol: (§3) Briefly, the cell transfections are performed as follows. Approximately 5 x 10^5 ts13 BHK tk cells (ATCC CRL-1632) are plated on 100mm dishes in DMEM + 10% calf serum. For each transfection 1 µg of pSV2neo and 10µg of a pCMV construct (pCMV, pCMV:TK-wrong (HSVTK in the wrong orientation relative to the promoter), pCMV:HSVTK, pCMV:30, pCMV:75 or pCMV:132 DNA) in 0.25M CaCl2 are mixed with 0.5ml 2 x BBS (see Chen and Okayama) and preincubated at 37°C at 2.5% CO2 for […]. The CaCl2/DNA mix is added dropwise to the plates and mixed in well. After a 24 hour incubation at 37°C in a 2.5% CO2 wet incubator, the cells are rinsed twice with Dulbecco PBS minus Ca/Mg and fed with fresh DMEM + 10% calf serum. Plates are incubated at 37°C with 6% CO2. After 72 hours post-transfection the cells are split 1:3 and plated in DMEM + 10% calf serum containing G418 at 600µg/ml.
(§4) The cells are selected on G418 (600µg/ml) at 37°C for 17 days. […]. Approximately 30-40 clones are selected in this manner for each transfected DNA containing a tk gene in the correct orientation. The pCMV and pCMV:TK-wrong transfections yielded between 130 and 140 clones each. G418 resistant clones are harvested, pooled and plated at a density of 2000 cells/well in 100µl DMEM + 10% calf serum and 200µg/ml G418 + 6% CO2 in 96 well microtiter plates. […]. After three days in the presence of the nucleoside analog, Alamar Blue is added and 6 hours later the plates are scanned using a fluorometer as according to the manufacturer's protocol (Alamar Biosciences, Inc., Sacramento, CA). The plates are incubated a further 24 hours at 37°C and scanned again.
(§5) Determination of the fluorescence level of cells incubated in the presence of Alamar Blue directly relates to cell viability.

[4] = system: ts13 BHK tk- cells transfected with pCMV:132 (HSV-1 TK mutant 132); assay: as above; type: cell-based, baby hamster; conditions: Mesocricetus auratus, 96 h; effective dose for 50% cell killing, after 4 days on nucleoside analog, pooled G418 resistant clones
Protocol: as §3, §4, §5

[5] = system: ts13 BHK tk- cells transfected with pCMV:75 (HSV-1 TK mutant 75); assay: as above; type: cell-based, baby hamster; conditions: Mesocricetus auratus, 96 h; effective dose for 50% cell killing, after 4 days on nucleoside analog, pooled G418 resistant clones
Protocol: as §3, §4, §5

[6] = system: ts13 BHK tk- cells transfected with pCMV:30 (HSV-1 TK mutant 30); assay: as above; type: cell-based, baby hamster; conditions: Mesocricetus auratus, 96 h; effective dose for 50% cell killing, after 4 days on nucleoside analog, pooled G418 resistant clones
Protocol: as §3, §4, §5

[7] = system: rat C6 glioblastoma cells transfected with TK mutant SR39, subcutaneous tumor; assay: Mouse xenograft tumor model with prodrug treatment; type: in vivo, Nude mice; conditions: prodrug twice a day for 5 days from day 5; Figures 32-34
Protocol: (§6) Rat C6 glioblastoma cells were transfected with the stable expression vector pREP8D7:dualGFP as described above containing various TK mutants. […] Experiments were carried out to establish prodrug dosing levels for tumor ablation and efficacy of therapy. Nude mice (JAX Labs, Bar Harbor, Maine) were injected subcutaneously with 0.5 x10^6 transfected rat C6 cells. After 5 days, prodrugs (ACV and GCV) were administered twice a day for a further 5 days. Prodrug was given at either of two concentrations (shown as mg/kg). During this period and for an additional 6 days, tumor size was monitored by caliper measurement every other day. At the end of the period, mice were sacrificed and the tumors excised and weighed.

[8] = system: rat C6 glioblastoma cells transfected with TK mutant 30, subcutaneous tumor; assay: Mouse xenograft tumor model with prodrug treatment; type: in vivo, Nude mice; conditions: prodrug twice a day for 5 days from day 5; Figures 32-34
Protocol: as §6

Cc1cn([C@H]2C[C@H](N=[N+]=[N-])[C@@H](CO)O2)c(=O)[nH]c1=O [AZT, 3' azido-3' thymidine]
colony formation on AZT-selection medium [1]: not on the AZT-selection medium
colony formation on AZT-selection medium [2]: not on the AZT-selection medium

Nc1nc2c(ncn2COCCO)c(=O)[nH]1 [acyclovir]
IC50 [3]: 25 µM
IC50 [4]: 25 µM
IC50 [5]: 1.25 µM
IC50 [6]: 18 µM
tumor reduction (tumor diameter, final tumor weight) [7]: significant tumor reduction
tumor reduction (tumor diameter, final tumor weight) [8]: significant tumor reduction
